Test [1] concerns the target T1, ternary BOB1/POU1/PORE complex (Homo sapiens, UniProt P14859).
T1 construct: made in house; host or cells: E. coli BL21
T1 sequence (P14859 280-438): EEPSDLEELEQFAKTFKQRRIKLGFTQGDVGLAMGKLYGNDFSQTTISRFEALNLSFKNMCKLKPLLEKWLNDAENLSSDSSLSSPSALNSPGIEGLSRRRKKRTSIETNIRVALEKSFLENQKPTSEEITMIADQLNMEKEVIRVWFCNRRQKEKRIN
The test can be described thus: Electrophoretic mobility shift assay (EMSA). Format: binding. The note with it: 100 μM. Background: Mobility shift assays separate free from complexed probe on a gel.

The next test has as its system CD4+CD25- T cells. Briefly: Anti-CD3/CD28-induced T-cell proliferation (CPD). Format: cell-based. To be noted: Homo sapiens, 72 h, 3 days. As to the method: FIGS. 7A-P are a combination of graphs and FACS plots showing that targeting the BOB1-OCT(s) interaction by compound 005 inhibits dose-dependently T-cell proliferation and selectively suppresses memory Th17 responses. Representative offset histogram overlays showing median fluorescence intensity of cell proliferation dye (CPD) in anti-CD3/CD28-activated CD4^+CD25^− T cells cultured without BOB1 inhibitor (DMSO-treated control) or in the presence of 5, 10 or 15 μM compound 005, as indicated (FIG. 7A). The percentage of proliferating cells is indicated for one representative donor. […] FIG. 7C-O show the expression of Th1-(IFNG (FIG. 7C), TNF (FIG. 7D), IL-2 (FIG. 7E) and TBX21 (FIG. 7F)), Th2-(IL-4 (FIG. 7G) and GATA3 (FIG. 7H)), Th17-(IL-17A (FIG. 7I), IL-17F (FIG. 7J), IL-21 (FIG. 7K), IL-22 (FIG. 7L) and RORC (FIG. 7M)), and Treg-(IL-10 (FIG. 7N) and FOXP3 (FIG. 7O)) associated cytokines and transcription factors during recall (memory) T cell responses in vitro. […] Each dot represents a biological replicate. Bars indicate the mean±SD. * P<0.05, ** P<0.01, **** P<0.0001.
Cells were resuspended in PBS and labelled with Cell Proliferation Dye eFluor 450 (CPD) (eBioscience) at a final concentration of 10 μM at 37° C. for 10 min, kept on ice for 5 min, and washed twice with 10 mL of ice-cold RPMI 1640 10% FCS medium.
To confirm and extend the observation that targeting the BOB1-OCT(s) interaction suppresses effector T cell proliferation efficiently, we cultured CD4^+CD25^− T cells in the presence of anti-CD3/CD28 microbeads and different concentrations of compound 005 for 3 days. […] OCT1 is constitutively expressed in T cells, whereas BOB1 is induced only after activation. […] Therefore, we next determined the consequences of inhibition of the OCT1-BOB1 complex on the expression of Th1-, Th2-, and Th17-associated cytokines during primary and secondary (memory) T-cell responses in vitro (FIGS. 7C-O). […]

The term inhibition denotes the percentage by which the read-out fell short of the control. Regarding `Cc1ccc(NC(=O)C2CN(c3nc(NCCCc4ccc(F)cc4)nc(NCCC(=O)O)n3)c3ccccc3O2)cc1Cl` (stereo not shown) [compound 005, 3-((4-(2-((3-chloro-4-methylphenyl)carbamoyl)-2,3-dihydro-4H-benzo[b][1,4]oxazin-4-yl)-6-((3-(4-fluorophenyl)propyl)amino)-1,3,5-triazin-2-yl)amino)propanoic acid], the “effect on ternary BOB1/POU1/PORE complex” value in test [1] was “has not affected”. The inhibition at 5 µM in the test on CD4+CD25- T cells (5 μM) amounted to 18.8 ± 12.5%. Besides, the inhibition at 10 µM with CD4+CD25- T cells (10 μM) turned out to be 50.5 ± 10.2%. Besides, the inhibition at 15 µM with CD4+CD25- T cells (15 μM) was 77.5 ± 9.2%.

The values are drawn from patent US20250177412A1, “SMALL-MOLECULE INHIBITORS TARGETING THE BOB1/OCT1 INTERFACE” (NANTES UNIVERSITE, priority 2022, published 2025).
